From patent US20200002354A1, “HEXAHYDROPYRAZINOBENZ- OR -PYRIDO-OXAZEPINES CARRYING AN OXYGEN-CONTAINING SUBSTITUENT AND USE THEREOF IN THE TREATMENT OF 5-HT2C-DEPENDENT DISORDERS” (AbbVie Deutschland GmbH & Co. KG, priority 2015, published 2020) come the findings set out here.

Like-named read-outs stand apart in the source and are kept apart here.

The term EC50 denotes the midpoint of the concentration-response curve. A word on the Emax: it is the size of the effect at its maximum, as opposed to the concentration needed.

For one data set, the target named is T1, human 5-HT2A receptor (Homo sapiens, UniProt P28223).
T1 construct: expressed in transfected cells; host or cells: CHO-K1
The data set can be described thus: Human 5-HT2A functional assay (calcium mobilisation in CHO-K1 cells, FLIPR). The format is cell-based. The settings on record: based on agonism: EC50 5-HT2A/EC50 5-HT2C. On the procedure: 2. Human 5-HT2A Functional Assay
Functional activity on the 5-HT2A receptor was determined by testing the effect of the compounds I on calcium mobilisation in CHO-K1 cells, stably transfected with human 5-HT2A receptor. Cells were seeded into sterile black 384-well plates with clear bottom at 25,000 cells/well in a volume of 25 μl and grown for 5-6 hours at 37° C., in 5% CO2 in tissue culture medium (“Ultra CHO” by LONZA), containing 1% dialysed FCS and 50 μg/ml gentamicin (Invitrogen). After this incubation, medium was replaced by a serum free version of the same tissue culture medium followed by incubation overnight at 37° C. and in 5% CO2. Cells were then loaded with a fluorescent calcium-sensitive dye in the presence of 0.07% probenecid for an hour at 37° C., according to the manufacturer's protocol (Ca5-Assay Kit, Molecular Devices), followed by an additional 60 min incubation at room temperature. Serial compound dilutions (final concentrations of 10^−10 to 10^−5M, prepared in HBSS+50 mM HEPES) were first added to the cells alone (“first addition” to assess agonism on the 5-HT2A receptor), then after 8 min, serotonin was added to the same wells at a final concentration of 3×10^−8 M (“second addition” to see potential antagonistic effect) and the maximal calcium response was determined using a FLIPR® Tetra instrument (Molecular Devices) in each of the two steps. The relative efficacy of the compounds was calculated as a percentage of the maximal effect induced by serotonin alone (defined as 100%). To determine EC50/IC50 values, concentration-response curves were fitted using a four-parameter logistic equation (IDBS Biobookml). Kb values were calculated from IC50 values, according to Cheng & Prusoff
A general note: A change in cytosolic calcium serves as a functional read-out for many receptors and channels.

The target in another data set is T2, human 5-HT2B receptor (Homo sapiens, UniProt P41595).
T2 construct: expressed in transfected cells; host or cells: CHO-FlpIn
The data set can be described thus: Human 5-HT2B functional assay (calcium mobilisation in CHO-FlpIn cells, FLIPR). The format is cell-based. Particulars: based on agonism: EC50 5-HT2B/EC50 5-HT2C. As to the method:
3. Human 5-HT2B Functional Assay
Functional activity on the 5-HT2B receptor was determined by testing the effect of the compounds I on calcium mobilisation in CHO-FlpIn cells, stably transfected with human 5-HT2B receptor. Cells were seeded into sterile black 384-well plates with clear bottom at 30,000 cells/well in a volume of 25 μl and grown overnight at 37° C., in 5% CO2 in tissue culture medium (“CHO-S-SFM II” by Invitrogen), containing 1% dialysed FCS and 50 μg/ml gentamicin (Invitrogen). On the next morning, medium was replaced by a serum free version of the same tissue culture medium for a further incubation for 4 hours at 37° C. and in 5% CO2. Cells were then loaded with a fluorescent calcium-sensitive dye in the presence of 0.07% probenecid for an hour at 37° C., according to the manufacturer's protocol (Ca5-Assay Kit, Molecular Devices), followed by an additional 60 min incubation at room temperature. Serial compound dilutions (final concentrations of 10^−10 to 10^−5M, prepared in HBSS+50 mM HEPES) were first added to the cells alone (“first addition” to assess agonism on the 5-HT2B receptor), then after 8 min, serotonin was added to the same wells at a final concentration of 10^−8 M (“second addition” to see potential antagonistic effect) and the maximal calcium response was determined using a FLIPR® Tetra instrument (Molecular Devices) in each of the two steps. The relative efficacy of the compounds was calculated as a percentage of the maximal effect induced by serotonin alone (defined as 100%). To determine EC50/IC50 values, concentration-response curves were fitted using a four-parameter logistic equation (IDBS Biobookml). Kb values were calculated from IC50 values, according to Cheng & Prusoff

A further data set addresses T3, 5-HT2C receptor (Homo sapiens, UniProt P28335).
T3 construct: host or cells: U2OS
The data set can be described thus: Human 5-HT2C functional assay (beta-arrestin2 recruitment, U2OS_HTR2C_β-Arrestin cells). The format is cell-based. The settings on record: for Emax: relative efficacy vs maximal effect induced by 5-HT (defined as 100%). As to the method:
1. Human 5-HT2C Functional Assay
The functional activity of compounds of formula I was assayed by incubation with U2OS_HTR2C_β-Arrestin cells (DiscoverX, 93-0289C3) to induce beta-arrestin2 recruitment to the 5-HT2C receptor. The agonist-induced recruitment and proximity of the receptor and beta-arrestin2 leads to complementation and formation of active β-galactosidase. The enzyme complementation results in enzyme activity, which is measured following the termination of the agonist incubation using DiscoveRx's detection reagent, which contains a chemiluminescent substrate which produces a high intensity signal. Cells were plated and a medium-change to a 1% serum containing medium was performed 24 h later. The next day, test compounds were added and incubated for 1.5 h before addition of detection reagent.
The response produced was measured and compared with the response produced by 10 [mu]M 5-HT or the maximal effect induced by 5-HT (defined as 100%) to which it was expressed as a percentage response (relative efficacy).
Background: Activated receptors often draw arrestin, which recruitment assays turn into a signal.

Data set [1] can be described thus: Metabolic stability in human liver microsomes, unbound intrinsic clearance. The format is in vitro ADME. The settings on record: pH 7.4. As to the method:
Samples of the tested compounds (0.5 μM) were preincubated together with human liver microsomes (0.25 mg of microsomal protein/mL) in 0.05 M potassium phosphate buffer of pH 7.4 in microtiter plates at 37° C. for 5 minutes. The reaction was started by adding NADPH (1.0 mM). After 0, 5, 10, 15, 20 and 30 minutes, an aliquot was removed, the reaction was cooled and stopped by adding twice the amount of quench solution consisting of acetonitrile/methanol 1:1, and containing 0.2 μM carbutamide as internal standard. The samples were frozen until analyzed. The remaining concentration of undegraded test substance was determined by liquid chromatography-tandem mass spectrometry (LC-MS/MS). The half-life (t1/2) was determined from the gradient of the ratio of the signal of (test substance/internal standard)/unit time plot, allowing the calculation of the half-life of the test substance, assuming first order kinetics, from the decrease in the concentration of the compound with time. The microsomal clearance (mClint) was calculated as follows: mClint=((ln(2)/t ½)/Microsomal Protein Concentration (mg/ml))*1000, leading to the unit of uL/min/mg. The scaled clearance (mClin_scaled) was calculated as mCLint_scaled=m CLint*(Microsomal Yield (mg/kg BW))/1000000*60, leading to the units L/h/kg. The Microsomal Yield is defined by the specifics of the used microsomes. Calculations were modified from references: Di, The Society for Biomolecular Screening, 2003, 453-462; Obach, D M D, 1999 vol 27. N 11, 1350-1359.
Calculation of Unbound Intrinsic Clearance
C1int unbound=C1 int/fu mic

The mark [2] stands for this setting: Potency (EC50 5-HT2C) in functional assay, agonism, read-out: EC50 5-HT2C.
Where [3] appears, read: liver microsomes, unbound intrinsic clearance (human), Clint unbound = Cl int/fu mic, read-out: Cl int, mic unb. (h).

T3 sequence (P28335 33-458): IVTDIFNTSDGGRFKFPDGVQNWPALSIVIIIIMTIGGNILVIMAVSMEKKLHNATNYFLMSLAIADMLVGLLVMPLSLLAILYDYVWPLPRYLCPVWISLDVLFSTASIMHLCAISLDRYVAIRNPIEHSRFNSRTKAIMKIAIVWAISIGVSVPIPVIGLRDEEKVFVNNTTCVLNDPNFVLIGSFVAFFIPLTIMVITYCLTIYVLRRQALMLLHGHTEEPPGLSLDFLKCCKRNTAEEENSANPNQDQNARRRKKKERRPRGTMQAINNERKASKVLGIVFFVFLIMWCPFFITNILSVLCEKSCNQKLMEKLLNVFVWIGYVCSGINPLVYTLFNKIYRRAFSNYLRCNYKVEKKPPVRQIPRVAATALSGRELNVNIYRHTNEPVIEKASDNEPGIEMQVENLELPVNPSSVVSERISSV
T3 sequence (P32121 whole entry partner): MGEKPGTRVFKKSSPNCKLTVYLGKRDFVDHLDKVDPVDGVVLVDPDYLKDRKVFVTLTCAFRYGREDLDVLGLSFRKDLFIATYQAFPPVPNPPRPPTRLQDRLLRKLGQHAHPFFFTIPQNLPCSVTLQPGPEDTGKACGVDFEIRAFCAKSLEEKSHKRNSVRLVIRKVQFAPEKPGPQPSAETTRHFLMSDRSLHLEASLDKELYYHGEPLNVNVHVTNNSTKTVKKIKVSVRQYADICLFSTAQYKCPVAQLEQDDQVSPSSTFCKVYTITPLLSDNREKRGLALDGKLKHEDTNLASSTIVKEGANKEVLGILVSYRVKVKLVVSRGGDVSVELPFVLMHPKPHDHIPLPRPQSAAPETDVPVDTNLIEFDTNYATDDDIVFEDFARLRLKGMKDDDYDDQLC
T2 sequence (P41595 whole entry): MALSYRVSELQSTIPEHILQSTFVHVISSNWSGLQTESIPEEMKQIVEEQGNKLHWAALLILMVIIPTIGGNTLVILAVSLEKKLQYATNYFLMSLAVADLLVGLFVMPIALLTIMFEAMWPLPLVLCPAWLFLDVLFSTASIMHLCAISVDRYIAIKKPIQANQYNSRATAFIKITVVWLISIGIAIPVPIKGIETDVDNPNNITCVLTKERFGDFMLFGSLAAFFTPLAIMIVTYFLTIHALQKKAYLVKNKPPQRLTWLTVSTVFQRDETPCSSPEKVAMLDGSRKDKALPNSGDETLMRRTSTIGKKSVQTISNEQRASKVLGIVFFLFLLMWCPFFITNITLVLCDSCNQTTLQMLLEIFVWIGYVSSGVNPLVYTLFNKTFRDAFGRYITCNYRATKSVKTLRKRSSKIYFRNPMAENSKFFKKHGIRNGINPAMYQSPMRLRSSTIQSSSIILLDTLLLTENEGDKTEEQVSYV
T1 sequence (P28223 whole entry): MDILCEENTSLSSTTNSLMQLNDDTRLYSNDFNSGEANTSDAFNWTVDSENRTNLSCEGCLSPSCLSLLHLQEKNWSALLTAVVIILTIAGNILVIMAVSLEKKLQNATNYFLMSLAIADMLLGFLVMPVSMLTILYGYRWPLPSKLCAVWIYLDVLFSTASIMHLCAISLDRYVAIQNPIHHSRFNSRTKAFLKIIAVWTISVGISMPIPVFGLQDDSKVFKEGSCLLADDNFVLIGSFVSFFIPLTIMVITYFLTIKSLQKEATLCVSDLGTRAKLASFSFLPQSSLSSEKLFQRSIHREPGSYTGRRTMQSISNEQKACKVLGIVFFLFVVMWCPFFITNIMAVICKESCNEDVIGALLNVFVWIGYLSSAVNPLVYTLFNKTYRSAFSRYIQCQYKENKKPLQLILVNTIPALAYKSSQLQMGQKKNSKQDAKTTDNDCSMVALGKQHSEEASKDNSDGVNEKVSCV

Regarding `COC[C@@H]1C[C@@H]2CNCCN2c2ccc(F)c(Cl)c2O1.Cl` [Example 5, (4aR,6S)-8-Chloro-9-fluoro-6-(methoxymethyl)-2,3,4,4a,5,6-hexahydro-1H-pyrazino[2,1-d][1,5]benzoxazepine hydrochloride], at human 5-HT2A receptor, the “Selectivity over 5-HT2A” value is “+++ (>100)”. For the same compound, the “Selectivity over 5-HT2B” value at human 5-HT2B receptor was “+ (from 10 to 30)”. Also, the EC50 at 5-HT2C receptor (setting [2]) is < 20 nM. Besides, the Emax at 5-HT2C receptor is > 70%. Also, in data set [1] (setting [3]), the CLint scaled at 0.5 μM is < 83.3 mL/min/kg.
For `COC[C@@H]1C[C@@H]2CNCCN2c2cc(F)cc(C(F)(F)F)c2O1.Cl` [Example 22, (4aR,6S)-10-Fluoro-6-(methoxymethyl)-8-(trifluoromethyl)-2,3,4,4a,5,6-hexahydro-1H-pyrazino[2,1-d][1,5]benzoxazepine hydrochloride], the “Selectivity over 5-HT2A” value at human 5-HT2A receptor was “+++ (>100)”. Besides, the “Selectivity over 5-HT2B” value on human 5-HT2B receptor is “++ (from >30 to 100)”. Besides, at 5-HT2C receptor (setting [2]), the EC50 was < 20 nM. Also, the Emax on 5-HT2C receptor was > 70%. The CLint scaled at 0.5 μM in data set [1] (setting [3]) was < 83.3 mL/min/kg.
The like results for `COC[C@H]1C[C@@H]2CNCCN2c2cccc(Cl)c2O1.O=C(O)C(F)(F)F` [Example 2, (4aR,6R)-8-Chloro-6-(methoxymethyl)-2,3,4,4a,5,6-hexahydro-1H-pyrazino[2,1-d][1,5]benzoxazepine; 2,2,2-trifluoroacetic acid] were, in that order, “+++ (>100)”, “+++ (>100)”, 20 to 200 nM, 50 to 70% and < 83.3 mL/min/kg.
The like results for `COC[C@@H]1C[C@@H]2CNCCN2c2cc(F)cc(C#N)c2O1.Cl` [Example 13, (4aR,6S)-10-Fluoro-6-(methoxymethyl)-2,3,4,4a,5,6-hexahydro-1H-pyrazino[2,1-d][1,5]benzoxazepine-8-carbonitrile hydrochloride] were, in that order, “+++ (>100)”, “++ (from >30 to 100)”, 20 to 200 nM, > 70% and < 83.3 mL/min/kg.
`COC[C@@H]1C[C@@H]2CNCCN2c2ccccc2O1.O=C(O)C(F)(F)F` [Example 3, (4aR,6S)-6-(Methoxymethyl)-2,3,4,4a,5,6-hexahydro-1H-pyrazino[2,1-d][1,5]benzoxazepine; 2,2,2-trifluoroacetic acid]: at human 5-HT2A receptor, the “Selectivity over 5-HT2A” value is “+ (from 10 to 30)”. Moreover, the “Selectivity over 5-HT2B” value on human 5-HT2B receptor is “+ (from 10 to 30)”. Also, at 5-HT2C receptor, the concentration for a half-maximal effect (EC50) fell in the range of 200 to 1000 nM and the Emax was in the range of 50 to 70%. Moreover, the CLint scaled at 0.5 μM in data set [1] (human, microsomes) is < 83.3 mL/min/kg.
Take `Cc1ccc2c(c1F)O[C@H](CO)C[C@@H]1CNCCN21` [Example 39, [(4aR,6S)-8-Fluoro-9-methyl-2,3,4,4a,5,6-hexahydro-1H-pyrazino[2,1-d][1,5]benzoxazepin-6-yl]methanol]: at human 5-HT2A receptor, the “Selectivity over 5-HT2A” value is “++ (from >30 to 100)”. Also, on human 5-HT2B receptor, the “Selectivity over 5-HT2B” value is on record as “++ (from >30 to 100)”. At 5-HT2C receptor (setting [2]), the EC50 was in the range of 20 to 200 nM. On 5-HT2C receptor, this compound showed an Emax of 50 to 70%. Also, in data set [1] (setting [3]), the CLint scaled at 0.5 μM is < 83.3 mL/min/kg.
Turning to `COC[C@@H]1C[C@@H]2CNCCN2c2cc(F)cc(C(F)F)c2O1.Cl` [Example 9, (4aR,6S)-8-(Difluoromethyl)-10-fluoro-6-(methoxymethyl)-2,3,4,4a,5,6-hexahydro-1H-pyrazino[2,1-d][1,5]benzoxazepine hydrochloride], the “Selectivity over 5-HT2A” value on human 5-HT2A receptor is listed as “+++ (>100)”. In addition, the “Selectivity over 5-HT2B” value on human 5-HT2B receptor is “+++ (>100)”. The EC50 on 5-HT2C receptor (setting [2]) was < 20 nM. For the same compound, the Emax at 5-HT2C receptor is > 70%. Besides, in data set [1] (setting [3]), the CLint scaled at 0.5 μM is < 83.3 mL/min/kg.
For `C#Cc1cc(F)c(F)c2c1O[C@H](COC)C[C@@H]1CNCCN21.Cl` [Example 40, (4aR,6S)-8-Ethynyl-10,11-difluoro-6-(methoxymethyl)-2,3,4,4a,5,6-hexahydro-1H-pyrazino[2,1-d][1,5]benzoxazepine hydrochloride], the “Selectivity over 5-HT2A” value at human 5-HT2A receptor is given as “+++ (>100)”. At human 5-HT2B receptor, the “Selectivity over 5-HT2B” value was “+ (from 10 to 30)”. Further, the EC50 on 5-HT2C receptor (setting [2]) was < 20 nM. Also, the Emax on 5-HT2C receptor was > 70%. In addition, the CLint scaled at 0.5 μM in data set [1] (setting [3]) was < 83.3 mL/min/kg.
The corresponding values for `COC[C@@H]1C[C@@H]2CNCCN2c2c(F)c(F)cc(F)c2O1.O=C(O)/C=C/C(=O)O` [Example 18, (4aR,6S)-8,10,11-Trifluoro-6-(methoxymethyl)-2,3,4,4a,5,6-hexahydro-1H-pyrazino[2,1-d][1,5]benzoxazepine; fumaric acid] are “+++ (>100)”, “+++ (>100)”, 20 to 200 nM, > 70% and < 83.3 mL/min/kg.
The corresponding values for `COC[C@@H]1C[C@@H]2CNCCN2c2cc(F)ccc2O1.Cl` [Example 8, (4aR,6S)-10-Fluoro-6-(methoxymethyl)-2,3,4,4a,5,6-hexahydro-1H-pyrazino[2,1-d][1,5]benzoxazepine hydrochloride] are “+++ (>100)”, “+++ (>100)”, 20 to 200 nM, > 70% and < 83.3 mL/min/kg.
The corresponding values for `COC[C@H]1C[C@@H]2CNCCN2c2c(F)c(F)cc(Cl)c2O1.Cl` [Example 37, (4aR,6R)-8-Chloro-10,11-difluoro-6-(methoxymethyl)-2,3,4,4a,5,6-hexahydro-1H-pyrazino[2,1-d][1,5]benzoxazepine hydrochloride] are “+ (from 10 to 30)”, “+ (from 10 to 30)”, 200 to 1000 nM, 30 to 50% and < 83.3 mL/min/kg.
